Our source for the EC50 values is patent publication US10370371B2, “Substituted pyrimidine Bmi-1 inhibitors” (PTC Therapeutics, Inc., priority 2013, dated 2019).

pEC50: −log10 of the molar value.

This assay concerns Bmi-1 protein. Briefly: Sandwich ELISA Assay (Bmi-1 protein level in HT-1080 cells). The format is cell-based. In outline:
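HT-1080 cells were treated with compounds (0.5% DMSO final) for 40-48 h at 37 °C. Lysates were assayed by sandwich ELISA: mouse anti-Bmi-1 capture, rabbit anti-Bmi-1 and HRP anti-rabbit detection, TMB read at OD450 (OD570 reference). Levels were quantified against a recombinant GST-Bmi-1 standard curve (125-8000 pg/mL).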
Background: An ELISA detects its analyte on a solid surface through an enzyme-linked reagent.

Broadly, the pEC50 is the EC50 on a negative log10 scale, so that one unit is a factor of ten. For the molecule `Nc1cc(-c2c(C(F)(F)F)nn3ccccc23)nc(Nc2ccc(C(F)(F)F)cc2)n1` [Cpd 98, N^2-[4-(trifluoromethyl)phenyl]-6-[2-(trifluoromethyl)pyrazolo[1,5-a]pyridin-3-yl]pyrimidine-2,4-diamine], the pEC50 is 7.00 to 8.00.

`Cc1nc2ncc(F)cc2n1-c1cc(N)nc(Nc2ccc(C(F)(F)F)cc2)n1` [Cpd 100, 6-(6-fluoro-2-methyl-1H-imidazo[4,5-b]pyridin-1-yl)-N^2-[4-(trifluoromethyl)phenyl]pyrimidine-2,4-diamine]: the negative-log EC50 (pEC50) is 8.00 to 9.00.

On to `Cc1nc2ncc(F)cc2n1-c1cc(N)nc(Nc2ccc(OC(F)F)cc2)n1` [Cpd 101, N^2-[4-(difluoromethoxy)phenyl]-6-(6-fluoro-2-methyl-1H-imidazo[4,5-b]pyridin-1-yl)pyrimidine-2,4-diamine], for which the pEC50 was 8.00 to 9.00.

Turning to `Cc1nc2cc(F)ccc2n1-c1cc(N)nc(Nc2ccc(C(F)(F)F)cc2)n1` [Cpd 102, 6-(5-fluoro-2-methyl-1H-benzimidazol-1-yl)-N^2-[4-(trifluoromethyl)phenyl]pyrimidine-2,4-diamine], the pEC50 was 7.00 to 8.00.

For `CCc1nc2cc(F)ccc2n1-c1cc(N)nc(Nc2ccc(C(F)(F)F)cc2)n1` [Cpd 104, 6-(2-ethyl-5-fluoro-1-benzimidazol-1-yl)-N^2-[4-(trifluoromethyl)phenyl]pyrimidine-2,4-diamine], the pEC50 was 7.00 to 8.00.

In turn, `Nc1cc(-c2c(C3CC3)nn3ccc(F)cc23)nc(Nc2ccc(C(F)(F)F)cc2)n1` [Cpd 107, 6-(2-cyclopropyl-5-fluoropyrazolo[1,5-a]pyridin-3-yl)-N^2-[4-(trifluoromethyl)phenyl]pyrimidine-2,4-diamine] had a pEC50 of 5.52 to 7.00.

`Cc1nc2c(cc(F)c[n+]2[O-])n1-c1cc(N)nc(Nc2ccc(C(F)(F)F)cc2)n1` [Cpd 108, 6-(6-fluoro-2-methyl-4-oxido-1H-imidazo[4,5-b]pyridin-1-yl)-N^2-[4-(trifluoromethyl)phenyl]pyrimidine-2,4-diamine] gave a pEC50 of 5.52 to 7.00.

Turning to `Cc1nn2ccc(F)cc2c1-c1cc(N)nc(Nc2ccc(C(F)(F)F)cc2)n1` [Cpd 109, 6-(5-fluoro-2-methylpyrazolo[1,5-a]pyridin-3-yl)-N^2-[4-(trifluoromethyl)phenyl]pyrimidine-2,4-diamine], the pEC50 was 7.00 to 8.00.

The molecule `Cc1nc2ccccc2n1-c1cc(N)[n+]([O-])c(Nc2ccc(C(F)(F)F)cc2)n1` [Cpd 110, 6-(2-methyl-1H-benzimidazol-1-yl)-N^2-[4-(trifluoromethyl)phenyl]pyrimidine-2,4-diamine 3-oxide] gave a pEC50 of 5.52 to 7.00.

The molecule `Cc1nc2ccc(F)cc2n1-c1cc(N)[n+]([O-])c(Nc2ccc(C(F)(F)F)cc2)n1` [Cpd 112, 6-(6-fluoro-2-methyl-1H-benzimidazol-1-yl)-N^2-[4-(trifluoromethyl)phenyl]pyrimidine-2,4-diamine 3-oxide] gave a pEC50 of 5.52 to 7.00.

Regarding `COc1ccn2nc(C)c(-c3cc(Cl)nc(Nc4ccc(C(F)(F)F)cc4)n3)c2c1` [Cpd 113, 4-chloro-6-(5-methoxy-2-methylpyrazolo[1,5-a]pyridin-3-yl)-N-[4-(trifluoromethyl)phenyl]pyrimidin-2-amine], the pEC50 was 7.00 to 8.00.

In the case of `COc1ccn2nc(C)c(-c3cc(N)nc(Nc4ccc(C(F)(F)F)cc4)n3)c2c1` [Cpd 114, 6-(5-methoxy-2-methylpyrazolo[1,5-a]pyridin-3-yl)-N^2-[4-(trifluoromethyl)phenyl]pyrimidine-2,4-diamine], the pEC50 was 7.00 to 8.00.

`Cc1nc2cc(F)c(F)cc2n1-c1cc(N)[n+]([O-])c(Nc2ccc(OC(F)F)cc2)n1` [Cpd 115, N^2-[4-(difluoromethoxy)phenyl]-6-(5,6-difluoro-2-methyl-1H-benzimidazol-1-yl)pyrimidine-2,4-diamine 3-oxide] gave a pEC50 of 5.52 to 7.00.

In the case of `Nc1cc(-n2c(C3CC3)nc3ccccc32)nc(Nc2ccc(C(F)(F)F)cc2)[n+]1[O-]` [Cpd 116, 6-(2-cyclopropyl-1H-benzimidazol-1-yl)-N^2-[4-(trifluoromethyl)phenyl]pyrimidine-2,4-diamine 3-oxide], the pEC50 is 5.52 to 7.00.

Turning to `CCc1nc2ccccc2n1-c1cc(N)[n+]([O-])c(Nc2ccc(C(F)(F)F)cc2)n1` [Cpd 118, 6-(2-ethyl-1H-benzimidazol-1-yl)-N^2-[4-(trifluoromethyl)phenyl]pyrimidine-2,4-diamine 3-oxide], the pEC50 is 5.52 to 7.00.

For `CCc1nc2ccc(F)cc2n1-c1cc(N)[n+]([O-])c(Nc2ccc(C(F)(F)F)cc2)n1` [Cpd 119, 6-(2-ethyl-6-fluoro-1H-benzimidazol-1-yl)-N^2-[4-(trifluoromethyl)phenyl]pyrimidine-2,4-diamine 3-oxide], the pEC50 is 5.52 to 7.00.

Turning to `Cc1nn2ccc(N)cc2c1-c1cc(N)nc(Nc2ccc(C(F)(F)F)cc2)n1` [Cpd 120, 6-(5-amino-2-methylpyrazolo[1,5-a]pyridin-3-yl)-N^2-[4-(trifluoromethyl)phenyl]pyrimidine-2,4-diamine], the pEC50 was 7.00 to 8.00.

Regarding `Cc1nn2ccc(Cl)cc2c1-c1cc(N)nc(Nc2ccc(OC(F)F)cc2)n1` [Cpd 121, 6-(5-chloro-2-methylpyrazolo[1,5-a]pyridin-3-yl)-N^2-[4-(difluoromethoxy)phenyl]pyrimidine-2,4-diamine], the pEC50 is 7.00 to 8.00.

The molecule `Cc1nn2ccc(Cl)cc2c1-c1cc(N)nc(Nc2ccc(C(F)(F)F)cc2)n1` [Cpd 122, 6-(5-chloro-2-methylpyrazolo[1,5-a]pyridin-3-yl)-N^2-[4-(trifluoromethyl)phenyl]pyrimidine-2,4-diamine] gave a pEC50 of 7.00 to 8.00.

In turn, `CSc1nc2ccccc2n1-c1cc(N)nc(Nc2ccc(C(F)(F)F)cc2)n1` [Cpd 123, 6-[2-(methylsulfanyl)-1H-benzimidazol-1-yl]-N^2-[4-(trifluoromethyl)phenyl]pyrimidine-2,4-diamine] had a pEC50 of 7.00 to 8.00.

For `CCc1nn2ccc(Cl)cc2c1-c1cc(N)nc(Nc2ccc(C(F)(F)F)cc2)n1` [Cpd 124, 6-(5-chloro-2-ethylpyrazolo[1,5-a]pyridin-3-yl)-N^2-[4-(trifluoromethyl)phenyl]pyrimidine-2,4-diamine], the pEC50 was 7.00 to 8.00.

`CCc1nn2ccc(Cl)cc2c1-c1cc(N)nc(Nc2ccc(OC(F)F)cc2)n1` [Cpd 125, 6-(5-chloro-2-ethylpyrazolo[1,5-a]pyridin-3-yl)-N^2-[4-(difluoromethoxy)phenyl]pyrimidine-2,4-diamine] showed a pEC50 of 7.00 to 8.00.

`Cc1cccc(Nc2nc(N)cc(-n3c(C)nc4ccccc43)n2)c1` [Cpd 127, 6-(2-methyl-1H-benzimidazol-1-yl)-N^2-(3-methylphenyl)pyrimidine-2,4-diamine] showed a pEC50 of 5.52 to 7.00.

In the case of `Cc1ccc(Nc2nc(N)cc(-n3c(C)nc4ccccc43)n2)cc1` [Cpd 128, 6-(2-methyl-1H-benzimidazol-1-yl)-N^2-(4-methylphenyl)pyrimidine-2,4-diamine], the pEC50 is 8.00 to 9.00.

`Cc1nc2ccccc2n1-c1cc(N)nc(Nc2ccc(Br)cc2)n1` [Cpd 131, N^2-(4-bromophenyl)-6-(2-methyl-1H-benzimidazol-1-yl)pyrimidine-2,4-diamine] gave a pEC50 of 7.00 to 8.00.

Molecule `Cc1nc2ccccc2n1-c1cc(N)nc(Nc2ccc([N+](=O)[O-])cc2)n1` [Cpd 132, 6-(2-methyl-1H-benzimidazol-1-yl)-N^2-(4-nitrophenyl)pyrimidine-2,4-diamine] had a pEC50 of 5.52 to 7.00.

In turn, `COc1ccc(Nc2nc(N)cc(-n3c(C)nc4ccc(F)cc43)n2)cc1` [Cpd 133, 6-(6-fluoro-2-methyl-1H-benzimidazol-1-yl)-N^2-(4-methoxyphenyl)pyrimidine-2,4-diamine] showed a pEC50 of 8.00 to 9.00.

In turn, `Cc1nc2ccccc2n1-c1cc(N)nc(Nc2ccc(N(C)C)cc2)n1` [Cpd 144, N^2-[4-(dimethylamino)phenyl]-6-(2-methyl-1H-benzimidazol-1-yl)pyrimidine-2,4-diamine] gave a pEC50 of 8.00 to 9.00.

In turn, `Cc1nc2ccccc2n1-c1cc(N)nc(Nc2ccc(C#N)cc2)n1` [Cpd 145, 4-{[4-amino-6-(2-methyl-1H-benzimidazol-1-yl)pyrimidin-2-yl]amino}benzonitrile] showed a pEC50 of 5.52 to 7.00.

As to `Cc1nc2ccccc2n1-c1cc(N)nc(Nc2ccc(OC(F)(F)F)cc2)n1` [Cpd 146, 6-(2-methyl-1H-benzimidazol-1-yl)-N^2-[4-(trifluoromethoxy)phenyl]pyrimidine-2,4-diamine], the pEC50 was 5.52 to 7.00.

For `Cc1nc2ccccc2n1-c1cc(N)nc(Nc2ccc3c(c2)OC(F)(F)O3)n1` [Cpd 147, N^2-(2,2-difluoro-1,3-benzodioxol-5-yl)-6-(2-methyl-1H-benzimidazol-1-yl)pyrimidine-2,4-diamine], the pEC50 is 5.52 to 7.00.

In the case of `COc1ccc(Nc2nc(N)cc(-n3c(C)nc4ccccc43)n2)cc1Cl` [Cpd 149, N^2-(3-chloro-4-methoxyphenyl)-6-(2-methyl-1H-benzimidazol-1-yl)pyrimidine-2,4-diamine], the pEC50 is 8.00 to 9.00.

Regarding `CCc1nc2ccccc2n1-c1cc(N)nc(Nc2ccc(C)cc2)n1` [Cpd 153, 6-(2-ethyl-1H-benzimidazol-1-yl)-N^2-(4-methylphenyl)pyrimidine-2,4-diamine], the pEC50 is 8.00 to 9.00.

In the case of `CCc1nc2ccc(F)cc2n1-c1cc(N)nc(Nc2cccc(Cl)c2)n1` [Cpd 164, N^2-(3-chlorophenyl)-6-(2-ethyl-6-fluoro-1H-benzimidazol-1-yl)pyrimidine-2,4-diamine], the pEC50 was 5.52 to 7.00.

In turn, `COc1ccc(Nc2nc(N)cc(-c3c(C)nc4ccc(F)cn34)n2)cc1` [Cpd 170, 6-(6-fluoro-2-methylimidazo[1,2-a]pyridin-3-yl)-N^2-(4-methoxyphenyl)pyrimidine-2,4-diamine] had a pEC50 of 8.00 to 9.00.

Consider `Cc1ccc(Nc2nc(N)cc(-c3c(C)nc4ccc(F)cn34)n2)cc1` [Cpd 171, 6-(6-fluoro-2-methylimidazo[1,2-a]pyridin-3-yl)-N^2-(4-methylphenyl)pyrimidine-2,4-diamine], for which the pEC50 is 8.00 to 9.00.
